This is an account of results in US9375438B2, “Inhibitors of NCCa-ATP channels for therapy” (University of Maryland, Baltimore, priority 2007, dated 2016).

Entries after “also recorded” stand apart in the source; their conditions may differ. Where two headings read alike, the source gives them in different places.

For data set [1], the system named is rats with hemi-cervical spinal cord contusion (SCI). Description: SCI model: lesion size. The class given is in vivo, rat. On the procedure:
(§1) SCI injury model. This study was performed in accordance with the guidelines of the Institutional Animal Care and Use Committee. Adult female Long-Evans rats (275-350 gm) were anesthetized (Ketamine, 60 mg/kg plus Xylazine, 7.5 mg/kg, i.p.). The dura at C4-5 was exposed via a left hemilaminectomy. A hemi-cervical spinal cord contusion was created using a blunt force impactor (1.3-mm impactor head driven by a 10 gm weight dropped vertically 25 mm) (Soblosky et al., 2001; Gensel et al., 2006). After SCI, animals were given 10 ml of glucose-free normal saline s.q. Rectal temperature was maintained at ˜37° C. using a servo-controlled warming blanket. Blood gases and serum glucose 10-15 min post-SCI were: pO2, 95±6 mm Hg; pCO2, 46±3 mm Hg; pH, 7.33±0.01; glucose 258±17 mg/dl in controls and pO2, 96±7 mm Hg; pCO2, 45±2 mm Hg; pH, 7.37±0.01; glucose 242±14 mg/dl in glibenclamide-treated animals.
(§2) Drug delivery. […] During the course of the project, slightly different formulations of drug were used, with the best results obtained using stock solutions made by placing 50 mg (or 25 mg) of drug into 10 ml DMSO, and infusion solutions made by placing 400 μl (or 800 μl) stock into 4.6 ml (or 4.2 ml) unbuffered saline (0.9% NaCl) and adjusting the pH to ˜8.5 using 0.1 N NaOH.
Lesion size. At 7 d post-SCI, cords were paraffin sectioned and stained with H&E. Lesion volumes were calculated from lesion areas measured on serial sections every 250 μm.
Immunohistochemistry. Cryosections were immunolabeled (Chen et al., 2003; Simard et al., 2006) using primary antibodies directed against SUR1 (Santa Cruz, C-16; 1:200; 1 h at RT, 48 h at 4° C.), SUR2 (Santa Cruz, H-80; 1:200; 1 h at RT, 48 h at 4° C.), GFAP (Sigma, C-9205; 1:500), and vimentin (Sigma, monoclonal CY3 conjugated; 1:100). Quantitative immunofluorescence was performed as described (Gerzanich et al., 2003).

Data set [2] concerns cells expressing SUR1-regulated NCCa-ATP channel. As to conditions: cited from earlier work.
The test system of data set [3] is rats with percussion-TBI. The data set can be described thus: Percussion-TBI model: extravasated blood in brain homogenates. The class given is in vivo, rat. From the text: (§3) Young adult male Long-Evans rats, 240-280 gm, were studied. Rats were anesthetized (Ketamine and Xylazine) and physiological parameters including temperature and blood gases were maintained within appropriate physiological ranges. With the head fixed in a stereotaxic frame, a 6-mm circular craniectomy was created abutting the sagittal and lambdoidal sutures. A posterior location was chosen to emphasize damage to underlying hippocampus (Vink et al., 2001; Floyd et al., 2002). […] Sham controls underwent craniectomy without percussion.

Data set [4] deals with rodent models of ischemic stroke. As to conditions: model of malignant cerebral edema; cited from earlier work.
For a further data set, the system named is uninjured rats. The data set can be described thus: Tail tip bleeding time. The class given is in vivo, rat. The settings on record: for bleeding time (effect): uninjured rats infused with glibenclamide vs vehicle. On the procedure: Bleeding times were measured using tail tip bleeding as described (Lorrain et al., 2003).
Data set [5] relates to rats with hemi-cervical spinal cord contusion (SCI). The settings on record: following SCI (Simard et al., 2007); cited from earlier work.
Data set [6] has as its system recombinant MMP-2 and MMP-9. The data set can be described thus: Zymography, gelatinase activity of recombinant MMP. The class given is biochemical. As to conditions: glibenclamide 10 μM; MMP-inhibitor II 300 nM. Here is the method:
Zymography of recombinant MMP-2 and MMP-9 (Sigma) was performed as described (Sumii and Lo, 2002).

The test system of data set [7] is rats with hemi-cervical spinal cord contusion (SCI). The settings on record: following SCI (Simard et al., 2007); cited from earlier work. The source holds these as a separate data set.
A short description of data set [8]: Effect of glibenclamide doses on serum glucose. In kind it is in vivo, rat. The settings on record: uninjured rats and rats with stroke and SCI; dose1-dose4.
The test system of data set [9] is rats with percussion-TBI. The data set can be described thus: Percussion-TBI model: lesion size and hippocampal neurons (Nissl sections). In kind it is in vivo, rat. As to conditions: 7 days post-TBI.
Text: as §3

The subject of data set [10] is rats with hemi-cervical spinal cord contusion (SCI). The data set can be described thus: SCI model: vimentin immunolabeling of capillaries. As to conditions: region of injury; glibenclamide 200 ng/h s.q. vs controls. The class given is in vivo, rat. Here is the method: as §1, §2
Immunohistochemistry. […] Quantitative immunofluorescence was performed as described (Gerzanich et al., 2003).

The conditions of data set [11]: rat, in vivo. On the procedure:
as §1, §2

The subject of data set [12] is NCCa-ATP channels in bEnd.3 cells. Description: Perforated-patch whole-cell recording of endothelial cells, Na azide-induced ATP depletion. The class given is cell-based, murine. As to conditions: 1 μM glibenclamide; endothelial cells exposed to hypoxic conditions. Here is the method:
Patch clamp of endothelial cells was performed using a nystatin-perforated patch technique, to maintain the metabolic integrity of the cells. The identity of the activated channel can be assessed by measurement of the “reversal potential”, the potential at which an ion channel current reverses from inward to outward. With physiologically relevant concentrations of ions intracellularly and extracellularly (high potassium inside, high sodium outside), the reversal potential can unambiguously distinguish between a K^+ channel current such as KATP, which reverses negative to −50 mV and a non-selective cation channel current such as NCCa-ATP, which reverses near 0 mV.
Cell culture. Endothelial cell cultures from human brain microvessels, human aorta (ScienCell Research Laboratories), and murine brain microvessels (bEnd.3; ATCC), were grown at low density using media and supplements recommended by suppliers.

The conditions of data set [13]: Long-Evans, rat, in vivo.

For the compound `COc1ccc(Cl)cc1C(=O)NCCc1ccc(S(=O)(=O)NC(=O)NC2CCCCC2)cc1` [glibenclamide], in data set [1] (24 h post-SCI, vs controls), the “lesions, gliosis and myelin (GFAP and myelin labeling)” value was “smaller lesions, less reactive gliosis and better myelin preservation”. Moreover, the “lesions on hematoxylin and eosin cross sections” value in data set [1] (7 d post-SCI, vs controls) is given as “smaller lesions”. Also, in [1] (following SCI, compared to controls (summary)), the “reduction in lesion volume” value is listed as 3 fold. For the same compound, the “oncotic (necrotic) cell death on ATP depletion” value in [2] is on record as “can be blocked”. In addition, in the data set on rats with percussion-TBI [3] (24 hr post-injury, vs vehicle), the “appearance of tissue homogenates” value is recorded as “visibly less bloody”. In addition, the “increase in extravasated blood” value with rats with percussion-TBI [3] (later times (6 and 24 hr) post-TBI, vs vehicle) is listed as “prevented further increases in blood”. In addition, the “volume of blood in brain homogenate” value in the data set with rats with percussion-TBI [3] (½ hr post-injury, glibenclamide 200 ng/hr s.q. vs vehicle) is reported as “did not affect”. For the same compound, the mortality entry in data set [4] is “by half”. The “bleeding time (effect)” value in the data set with uninjured rats is recorded as “no effect”. Moreover, the “bleeding time (effect)” value in the data set with uninjured rats (listed as Glibenclamide) was “did not affect”. This compound showed a tail bleeding time with uninjured rats (uninjured rats, same dose (200 ng/hr), n=3-5) of 21.5 ± 3.1 s. In addition, the “reduction in lesion volume” value in data set [5] is recorded as 3 fold. The “gelatinase activity of recombinant MMP” value in [6] is “the same; also recorded: not affected”. Moreover, the “capillary fragmentation and progressive secondary hemorrhage” value in [7] is on record as “essentially eliminates”. For the same compound, in [8], the “effect of proposed doses on serum glucose” value was “only the highest are hypoglycemogenic, but only mildly so”. Further, the “lesion area on coronal sections at the epicenter of injury” value in the data set with rats with percussion-TBI [9] (10 rats/group) was 4.4±0.8 mm^2. Besides, the “hippocampus on Nissl stained sections” value in the data set with rats with percussion-TBI [9] (vs vehicle) is “sparing of hippocampus”. Also, in data set [10], the “appearance of vimentin(+) capillaries” value is “elongated and appeared more normal”. Further, in data set [11], the “blood pH” value amounted to 7.37±0.01, the pCO2 came out at 45±2 mm Hg, the pO2 is on record as 96±7 mm Hg and the serum glucose was 242 ± 14 mg/dL. In [12], the “block of Na azide-induced ohmic current” value is listed as “blocked”. For the same compound, in [13], the “time required to achieve 90% steady-state serum drug levels” value came to 3 h.
